Assay results as given in US8604053B2, “TRPV1 antagonists” (AbbVie Inc., priority 2008, dated 2013).

Experiments:
CYP2D6 = molecular target: T1, CYP2D6 (Homo sapiens, UniProt P10635); assay: in vitro; type: in vitro ADME; conditions: microsomes; for inhibition at 25 min, 2.2 µM: human, pH 7.4
T1 construct: human liver microsomes (BD Gentest); tissue BD Gentest; host or cells: human liver microsomes
Experimental: Stock solutions of test compounds were assayed in 96-well format for their ability to inhibit CYP2C9, CYP2D6, or CYP3A4 mediated metabolism of test substrates. Luciferin-H was used as the substrate for CYP2C9; 3-[2-(N,N-diethyl-N-methylammonium)ethyl]-7-methoxy-4-methylcoumarin (AMMC) was used as the substrate for CYP2D6; 7-benzyloxyquiniline (BZQ) was used as the substrate for CYP3A4. For each subtype, positive controls (sulphaphenazole in the case of CYP2C9; quinidine in the case of CYP2D6, ketoconazole in the case of CYP3A4) were used to validate assay results run in duplicate.
Pre-Incubation Mixture Preparation for CYP2C9 and CYP2D6: A pre-incubation mixture was prepared by combining 100 mM phosphate buffer (9.12 mL; pH 7.4), human liver microsomes (BD Gentest, 240 itt; final concentration: 0.4 mg/mL), and 10 mM nicotinamide adenine dinucleotide phosphate in 65.4 mM MgCl2 hexahydrate (120 μL; final concentration: 125 μM and 818 μM, respectively). To this was mixture is added a ‘regeneration’ mixture (120 μL) of 333 mM glucose-6-phosphate and 40 U/mL glucose-6-phosphate dehydrogenase in 5 mM sodium citrate (final concentration: 4 mM, 0.5 U/mL, and 0.06 mM, respectively).
Substrate Mixture Preparation for CYP2D6: To a solution of 100 mM phosphate buffer, (2.80 mL, pH 7.4) was added 10 mM AMMC in acetonitrile (14 itt; final solution concentration 0.05 mM, final assay concentration 10 μM).
CYP2D6 Inhibiton Assay: To each well in the assay plate containing varying concentrations of test compound or control compound in DMSO (10 μL), Pre-Incubation Mixture (40 μL) was added to the wells and the assay plate was pre-incubated for 10 minutes at 37° C., with shaking or rocking. A pre-read of each well was performed at 390 nm and 460 nm extinction/emission. CYP2D6 Substrate Mixture (10 μL) was added to all wells and the assay plate was incubated for an additional […] at 37° C., with shaking or rocking. Final DMSO concentration was 1%. A post-read of each well was then performed at 390 nm and 460 nm extinction/emission.

[1] = molecular target: T2, human TRPV1 receptor (hTRPV1) (Homo sapiens, UniProt Q8NER1); assay: Capsaicin activation assay (Ca2+ influx, FLIPR); type: cell-based; conditions: hTRPV1 in 1321N1 cells, 0.05 μM capsaicin
T2 construct: expressed in transfected cells
Summary of the method: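 1321N1 astrocytoma cells stably expressing recombinant hTRPV1, loaded with Fluo-4 AM (2 μM, 1-2 h, 23 °C); compounds added 3 min before capsaicin (0.05 μM final), 11-point half-log range. Peak FLIPR fluorescence over baseline as % of capsaicin control; IC50 from four-parameter Hill fit.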

T1 sequence (P10635 whole entry): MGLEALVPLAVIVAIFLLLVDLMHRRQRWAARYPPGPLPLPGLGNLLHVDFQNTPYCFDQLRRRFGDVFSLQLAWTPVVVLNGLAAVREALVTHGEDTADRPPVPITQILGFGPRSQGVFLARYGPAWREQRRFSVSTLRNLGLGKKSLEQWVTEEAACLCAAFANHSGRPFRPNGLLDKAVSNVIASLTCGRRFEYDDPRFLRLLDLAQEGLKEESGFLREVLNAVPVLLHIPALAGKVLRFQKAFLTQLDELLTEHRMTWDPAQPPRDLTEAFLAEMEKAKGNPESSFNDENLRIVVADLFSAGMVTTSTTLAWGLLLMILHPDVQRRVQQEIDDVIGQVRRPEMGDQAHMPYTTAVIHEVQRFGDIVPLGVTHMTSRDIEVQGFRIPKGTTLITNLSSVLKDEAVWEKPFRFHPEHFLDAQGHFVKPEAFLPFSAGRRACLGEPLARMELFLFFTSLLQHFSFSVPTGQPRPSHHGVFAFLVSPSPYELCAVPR
T2 sequence (Q8NER1 whole entry): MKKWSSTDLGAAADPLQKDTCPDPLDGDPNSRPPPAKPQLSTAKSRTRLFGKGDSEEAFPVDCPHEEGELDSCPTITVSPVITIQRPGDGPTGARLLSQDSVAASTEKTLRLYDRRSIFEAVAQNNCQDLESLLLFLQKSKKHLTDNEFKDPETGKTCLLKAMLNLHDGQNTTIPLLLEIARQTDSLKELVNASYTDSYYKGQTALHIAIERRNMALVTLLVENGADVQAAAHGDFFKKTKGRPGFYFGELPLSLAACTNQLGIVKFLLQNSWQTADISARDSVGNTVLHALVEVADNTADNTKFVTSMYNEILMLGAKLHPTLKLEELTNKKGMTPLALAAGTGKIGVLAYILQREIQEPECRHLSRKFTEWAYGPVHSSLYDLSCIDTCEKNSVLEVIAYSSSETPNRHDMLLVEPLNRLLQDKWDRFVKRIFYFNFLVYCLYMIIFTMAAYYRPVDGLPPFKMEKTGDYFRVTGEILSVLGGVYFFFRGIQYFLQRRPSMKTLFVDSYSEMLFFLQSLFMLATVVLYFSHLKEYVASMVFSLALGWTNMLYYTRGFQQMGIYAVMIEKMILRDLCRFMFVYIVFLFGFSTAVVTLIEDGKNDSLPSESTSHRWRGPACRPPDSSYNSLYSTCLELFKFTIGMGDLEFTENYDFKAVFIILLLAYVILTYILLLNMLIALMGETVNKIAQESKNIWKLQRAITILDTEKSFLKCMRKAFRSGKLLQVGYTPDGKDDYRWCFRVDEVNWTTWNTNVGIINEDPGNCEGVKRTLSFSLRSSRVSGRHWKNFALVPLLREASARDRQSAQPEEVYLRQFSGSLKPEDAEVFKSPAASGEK

Row | Compound | inhibition at 25 min, 2.2 µM (CYP2D6) | IC50 [1] | CYP2D6 % inh @ 2.2 μM) (CYP2D6)
1 | Cc1cc2c(NC(=O)N[C@@H]3CC(CF)(CF)Oc4ccccc43)cccc2cn1 [Example 101, N-[(4R)-2,2-bis(fluoromethyl)-3,4-dihydro-2H-chromen-4-yl]-N′-(3-methylisoquinolin-5-yl)urea] | 11% | 91 nM | 
2 | Cc1cc2c(NC(=O)N[C@@H]3CC(CF)(CF)Oc4cc(Br)ccc43)cccc2cn1 [Example 102, N-[(4R)-7-bromo-2,2-bis(fluoromethyl)-3,4-dihydro-2H-chromen-4-yl]-N′-(3-methylisoquinolin-5-yl)urea] | 20% | 14 nM | 
3 | Cc1cc2c(NC(=O)N[C@@H]3CC(C)(C)Oc4c3ccc(F)c4Cl)cccc2cn1 [Example 110, N-[(4R)-8-chloro-7-fluoro-2,2-dimethyl-3,4-dihydro-2H-chromen-4-yl]-N′-(3-methylisoquinolin-5-yl)urea] | 1.4% | 23 nM | 
4 | Cc1cc2c(NC(=O)N[C@@H]3CC(C)(C)Oc4c3ccc(F)c4F)cccc2cn1 [Example 113, N-[(4R)-7,8-difluoro-2,2-dimethyl-3,4-dihydro-2H-chromen-4-yl]-N′-(3-methylisoquinolin-5-yl)urea] | 0% | 12 nM | 
5 | Cc1cc2c(NC(=O)N[C@@H]3CC(C)(C)Oc4cc(C(F)(F)F)ccc43)cccc2cn1 [Example 118, N-[(4R)-2,2-dimethyl-7-(trifluoromethyl)-3,4-dihydro-2H-chromen-4-yl]-N′-(3-methylisoquinolin-5-yl)urea] | 21% | 19 nM | 
6 | Cc1cc2c(NC(=O)N[C@@H]3CC(C)(C)Oc4c(F)cccc43)cccc2cn1 [Example 119, N-[(4R)-8-fluoro-2,2-dimethyl-3,4-dihydro-2H-chromen-4-yl]-N′-(3-methylisoquinolin-5-yl)urea] | 8.7% | 28 nM | 
7 | Cc1cc2c(NC(=O)N[C@@H]3CC(CF)(CF)Oc4c(F)cc(F)cc43)cccc2cn1 [Example 120, N-[(4R)-6,8-difluoro-2,2-bis(fluoromethyl)-3,4-dihydro-2H-chromen-4-yl]-N′-(3-methylisoquinolin-5-yl)urea] | 6.2% | 43 nM | 
8 | Cc1cc2c(NC(=O)N[C@@H]3CC(C)(C)Oc4cc(F)ccc43)c(F)ccc2cn1 [Example 123, N-[(4R)-7-fluoro-2,2-dimethyl-3,4-dihydro-2H-chromen-4-yl]-N′-(6-fluoro-3-methylisoquinolin-5-yl)urea] | 42% | 27 nM | 
9 | Cc1cc2c(NC(=O)N[C@@H]3C[C@](C)(CF)Oc4c(F)cccc43)cccc2cn1 [Example 126, N-[(2R,4R)-8-fluoro-2-(fluoromethyl)-2-methyl-3,4-dihydro-2H-chromen-4-yl]-N′-(3-methylisoquinolin-5-yl)urea] | 0% | 200 nM | 
10 | Cc1cc2c(NC(=O)N[C@@H]3C[C@@](C)(CF)Oc4c(F)cccc43)cccc2cn1 [Example 128, N-[(2S,4R)-8-fluoro-2-(fluoromethyl)-2-methyl-3,4-dihydro-2H-chromen-4-yl]-N′-(3-methylisoquinolin-5-yl)urea] | 0.23% | 300 nM | 
11 | N-[(4R)-2,2-diethyl-6-fluoro-3,4-dihydro-2H-chromen-4-yl]-N-(3-methylisoquinolin-5-yl)urea [Example 56] |  | 15 nM | 14%
12 | N-[(4R)-2,2-diethyl-8-fluoro-3,4-dihydro-2H-chromen-4-yl]-N-(3-methylisoquinolin-5-yl)urea [Example 62] |  | 4 nM | 9.1%
13 | N-[(4R)-6,8-difluoro-2,2-dimethyl-3,4-dihydro-2H-chromen-4-yl]-N-(3-methylisoquinolin-5-yl)urea [Example 98] |  | 17 nM | 3.7%
14 | N-[(4R)-6,8-difluoro-2,2-dimethyl-3,4-dihydro-2H-chromen-4-yl]-N′-isoquinolin-5-ylurea [Example 17] |  | 32 nM | 100%
15 | N-[(4R)-7-fluoro-2,2,8-trimethyl-3,4-dihydro-2H-chromen-4-yl]-N-(3-methylisoquinolin-5-yl)urea [Example 111] |  | 24 nM | 0.87%
